According to patent EP0589484A1, “1,2-Ethanediol derivative and salt thereof, process for producing the same, and cerebral function-improving agent comprising the same” (TOYAMA CHEMICAL CO., LTD., priority 1989, dated 1990):
Structures can show the parent of a compound that is named as a salt. Where two headings read alike, the source gives them in different places.

Columns and labels:
[1] = tested on: ddY male mice; experiment: Acute toxicity; type: in vivo, mouse; details: 50 mg/kg intravenously, group of 3 ddY male mice
Text: A test compound dissolved in physiological saline was intravenously administered to a group of 3 ddY male mice (5-6 weeks old) to examine the acute toxicity of the test compound.

[2] = tested on: ddY female mouse; experiment: Effect of test compound on hypoxia (antihypoxic activity); type: in vivo; details: po, read-out: Antihypoxic activity (%)
Procedure: A test compound dissolved in physiological saline (100 mg/kg) was orally administered to a ddY female mouse (5-6 weeks old, each group consisting of 10 mice). After 1 (or 30 minutes*) hour from the administration, each mouse was placed in a 300-ml glass chamber, and a gas mixture consisting of 4% of oxygen and 96% of nitrogen was passed through the chamber at a rate of 5 liters/min. A time from the start of gas passing to the death of each mouse was measured.
To a control mice group was orally administered only physiological saline.
The antihypoxic activity of the test compound was calculated from the following formula: [formula]

[3] = 0.5 h, 100 mg/kg orally, placed in chamber (4% oxygen, 96% nitrogen) after 30 minutes from the administration (values marked *), survival time relative to control
[4] = 100 mg/kg orally, placed in chamber (4% oxygen, 96% nitrogen) after 1 hour from the administration, survival time relative to control

CN(C)CCOCC(O)c1ccc(O)cc1.Cl (centres unmarked) [Compound No. 170, 1-(4-hydroxyphenyl)-2-[2-(N,N-dimethylamino)ethoxy]ethanol hydrochloride]
Acute toxicity [1]: no death case

OC(COCCN1CCOCC1)c1ccccc1 (centres unmarked) [compound 8]
Acute toxicity [1]: no death case

Cc1ccccc1C(O)COCCN(C)C (centres unmarked) [compound 14]
response vs control in vivo at 100 mg/kg [2, 3]: 184%

CN(C)CCOCC(O)c1ccc(C(C)(C)C)cc1 (centres unmarked) [compound 19]
response vs control in vivo at 100 mg/kg [2, 3]: 168%

Cc1cccc(C(O)COCCCCN(C)C)c1 (centres unmarked) [compound 23]
response vs control in vivo at 100 mg/kg [2, 3]: 241%

Cc1cccc(C(O)COCCN2CCCC2=O)c1 (centres unmarked) [compound 25]
Acute toxicity [1]: no death case

Cc1cc(C)cc(C(O)COCCN(C)C)c1 (centres unmarked) [compound 27]
response vs control in vivo at 100 mg/kg [2, 3]: 201%

OC(COCCN1CCCCC1)c1cccc(Cl)c1 (centres unmarked) [compound 36]
response vs control in vivo at 100 mg/kg [2, 4]: 139%

COc1ccc(C(O)COCCN(C)C)cc1 (centres unmarked) [compound 44]
Acute toxicity [1]: no death case

CN(C)CCOCC(O)c1ccc(OCc2ccc(Cl)cc2)cc1 (centres unmarked) [compound 49]
response vs control in vivo at 100 mg/kg [2, 4]: 151%

CN(C)CCOCC(O)c1ccc2c(c1)OCO2 (centres unmarked) [compound 52]
Acute toxicity [1]: no death case

CN(C)CCOCC(O)c1cccc(Oc2ccccc2)c1 (centres unmarked) [compound 53]
Acute toxicity [1]: no death case

CN(C)CCOCC(O)c1ccc(-c2ccccc2)cc1 (centres unmarked) [compound 56]
response vs control in vivo at 100 mg/kg [2, 4]: 182%

CN(C)CCOCC(O)c1ccc(OCc2ccccn2)cc1 (centres unmarked) [compound 84]
response vs control in vivo at 100 mg/kg [2, 3]: 175%

CN(C)CCOCC(O)c1c(Cl)cccc1Cl (centres unmarked) [compound 96]
response vs control in vivo at 100 mg/kg [2, 3]: 176%

COc1cc(C(O)COCCN(C)C)ccc1OCc1ccccc1 (centres unmarked) [compound 98]
response vs control in vivo at 100 mg/kg [2, 3]: 164%

OC(COCCN1CCOCC1)c1ccc(OCc2ccccc2)cc1 (centres unmarked) [compound 100]
response vs control in vivo at 100 mg/kg [2, 3]: 171%

NCCOCC(O)c1ccccc1 (centres unmarked) [compound 102]
response vs control in vivo at 100 mg/kg [2, 3]: 140%

Cc1cccc([C@@H](O)COCCN(C)C)c1 [compound 104]
response vs control in vivo at 100 mg/kg [2, 3]: 160%

OC(COCc1cccnc1)c1ccc(OCc2ccccc2)cc1 (centres unmarked) [compound 121]
response vs control in vivo at 100 mg/kg [2, 3]: 149%

OC(COCc1ccccn1)c1ccccc1 (centres unmarked) [compound 122]
response vs control in vivo at 100 mg/kg [2, 3]: 142%

OC(COCc1ccncc1)c1ccccc1 (centres unmarked) [compound 123]
response vs control in vivo at 100 mg/kg [2, 3]: 140%

Cc1cccc(C(O)COCc2cccnc2)c1 (centres unmarked) [compound 125]
response vs control in vivo at 100 mg/kg [2, 3]: 172%

O[C@H](COCc1cccnc1)c1ccccc1 [compound 129]
response vs control in vivo at 100 mg/kg [2, 3]: 158%

COc1ccc(C(O)COCc2cccnc2)cc1 (centres unmarked) [compound 131]
response vs control in vivo at 100 mg/kg [2, 3]: 167%

O[C@@H](COCC1CNCCS1)c1ccccc1 (some centres unmarked) [compound 134]
response vs control in vivo at 100 mg/kg [2, 3]: 201%

OC(COCc1c[nH]cn1)c1ccc(OCc2ccccc2)cc1 (centres unmarked) [compound 137]
response vs control in vivo at 100 mg/kg [2, 3]: 163%

OC(COCc1cccnc1)c1cccc(Oc2ccccc2)c1 (centres unmarked) [compound 139]
response vs control in vivo at 100 mg/kg [2, 3]: 162%

OC(COCC1CN(Cc2ccccc2)CCO1)c1ccc(Oc2ccccc2)cc1 (centres unmarked) [compound 147]
Acute toxicity [1]: no death case

Cc1cccc(C(O)COCC2CNCCO2)c1 (centres unmarked) [compound 152]
response vs control in vivo at 100 mg/kg [2, 4]: 180%

OC(COCC1CNCCO1)c1cccc(Cl)c1 (centres unmarked) [compound 153]
response vs control in vivo at 100 mg/kg [2, 4]: 185%

OCC1CCCN1CCOCC(O)c1ccccc1 (centres unmarked) [compound 159]
Acute toxicity [1]: no death case

CN(CCOCC(O)c1ccccc1)C(=O)C1CCC(=O)N1 (centres unmarked) [compound 160]
Acute toxicity [1]: no death case

OC(COCCN1CCN(C(c2ccccc2)c2ccccc2)CC1)c1ccccc1 (centres unmarked) [compound 167]
response vs control in vivo at 100 mg/kg [2, 4]: 165%

CC(=O)OC(COCCN(C)C)c1cccc(C)c1 (centres unmarked) [compound 180]
response vs control in vivo at 100 mg/kg [2, 3]: 176%

CC(=O)N(C)CCOCC(O)c1ccccc1 (centres unmarked) [compound 181]
response vs control in vivo at 100 mg/kg [2, 4]: 132%

CC(=O)OC(COCCN(C)C)c1ccc(-c2ccccc2)cc1 (centres unmarked) [compound 187]
response vs control in vivo at 100 mg/kg [2, 3]: 153%

CC(=O)OC(COCc1cccnc1)c1ccccc1 (centres unmarked) [compound 188]
response vs control in vivo at 100 mg/kg [2, 3]: 144%

CN1CCN(CCOCC(O)c2ccc(OCc3ccccc3)cc2)CC1 (centres unmarked) [compound 195]
response vs control in vivo at 100 mg/kg [2, 3]: 176%

CN(CCOCC(O)c1ccc(OCc2ccccc2)cc1)C1CC1 (centres unmarked) [compound 203]
response vs control in vivo at 100 mg/kg [2, 3]: 177%

OC(COCCNC1CC1)c1ccc(OCc2ccccc2)cc1 (centres unmarked) [compound 204]
response vs control in vivo at 100 mg/kg [2, 3]: 176%

Cc1cccc(C(O)COCCNC2CC2)c1 (centres unmarked) [compound 208]
response vs control in vivo at 100 mg/kg [2, 3]: 242%

CC(C)(C)NCCOCC(O)c1ccccc1 (centres unmarked) [compound 211]
response vs control in vivo at 100 mg/kg [2, 3]: 177%

COC(COCCN(C)C)c1ccc(OCc2ccccc2)cc1 (centres unmarked) [compound 213]
response vs control in vivo at 100 mg/kg [2, 4]: 149%

Cn1cncc1COCC(O)c1ccc(OCc2ccccc2)cc1 (centres unmarked) [compound 215, 1-(4-Benzyloxyphenyl)-2-[(1-methylimidazol-5-yl)-methoxy]ethanol]
response vs control in vivo at 100 mg/kg [2, 4]: 197%

O[C@H](COC[C@@H]1CNCCO1)c1ccccc1 [compound 218, (1S,2'S)-1-phenyl-2-[(morpholin-2-yl)methoxy]ethanol oxalate]
response vs control in vivo at 100 mg/kg [2, 3]: 157%

CN(C)CCOCC(O)c1ccc(F)c2ccccc12 (centres unmarked) [compound 231]
response vs control in vivo at 100 mg/kg [2, 4]: 246%

Cc1ccc(C(O)COCCN(C)C)c2ccccc12 (centres unmarked) [compound 232]
response vs control in vivo at 100 mg/kg [2, 4]: 150%

OC(COCCN1CCCCC1)c1ccc2ccccc2c1 (centres unmarked) [compound 238]
response vs control in vivo at 100 mg/kg [2, 4]: 123%

CCN(CC)CCOCC(O)c1cccc2ccccc12 (centres unmarked) [compound 243]
response vs control in vivo at 100 mg/kg [2, 4]: 159%

CC(CN(C)C)OCC(O)c1cccc2ccccc12 (centres unmarked) [compound 250]
response vs control in vivo at 100 mg/kg [2, 3]: 145%

CN(C)CCOCC(O)c1ccc2c(c1)CCC2 (centres unmarked) [compound 252]
response vs control in vivo at 100 mg/kg [2, 3]: 190%

CN1CCN(CCOCC(O)c2cccc3ccccc23)CC1 (centres unmarked) [compound 259, 2-[2-(4-methylpiperazin-1-yl)ethoxy]-1-(1-naphthyl)ethanol dihydrochloride]
response vs control in vivo at 100 mg/kg ([2]; 0.5 h): 155%

CNCCOCC(O)c1cccc2ccccc12 (centres unmarked) [compound 261, 2-[2-(N-methylamino)ethoxy]-1-(1-naphthyl)ethanol hydrochloride]
response vs control in vivo at 100 mg/kg ([2]; 1 h): 126%

CN1CCC=C(COCC(O)c2cccc3ccccc23)C1 (centres unmarked) [compound 271]
response vs control in vivo at 100 mg/kg [2, 3]: 150%

OC(COCc1cccnc1)c1ccc2ccccc2c1 (centres unmarked) [compound 272]
response vs control in vivo at 100 mg/kg [2, 3]: 185%

CN(C)CCOCC(O)c1cccc2cccc([N+](=O)[O-])c12 (centres unmarked) [compound 289, 2-[2-(N,N-dimethylamino)ethoxy]-1-(8-nitro-1-naphthyl)ethanol oxalate]
response vs control in vivo at 100 mg/kg ([2]; 0.5 h): 157%

CN(C)CCOCC(O)c1cccc2ccsc12 (centres unmarked) [compound 320]
response vs control in vivo at 100 mg/kg [2, 3]: 212%

OC(COCCN1CCCCC1)c1ccc2sccc2c1 (centres unmarked) [compound 330]
response vs control in vivo at 100 mg/kg [2, 3]: 242%

CN(C)CCOCC(O)c1ccc2c(c1)CCS2 (centres unmarked) [compound 332]
response vs control in vivo at 100 mg/kg [2, 3]: 230%

CC(COCC(O)c1ccc2sccc2c1)N(C)C (centres unmarked) [compound 338]
response vs control in vivo at 100 mg/kg [2, 3]: 144%

OC(COCc1cccnc1)c1ccc2occc2c1 (centres unmarked) [compound 339, 1-(benzo[b]furan-5-yl)-2-(pyridin-3-yl-methxoy)ethanol]
response vs control in vivo at 100 mg/kg [2, 3]: 131%

OC(COCc1cccnc1)c1ccc2sccc2c1 (centres unmarked) [compound 340]
response vs control in vivo at 100 mg/kg [2, 3]: 163%

OC(COCC1CNCCO1)c1ccc2sccc2c1 (centres unmarked) [compound 343]
response vs control in vivo at 100 mg/kg [2, 3]: 160%

CN1CCCC(COCC(O)c2ccc3sccc3c2)C1 (centres unmarked) [compound 344]
response vs control in vivo at 100 mg/kg [2, 3]: 268%

CN1CCC=C(COCC(O)c2ccc3sccc3c2)C1 (centres unmarked) [compound 345]
response vs control in vivo at 100 mg/kg [2, 3]: 185%

CNCCOCC(O)c1ccc2sccc2c1 (centres unmarked) [compound 347, 1-(benzo[b]thiophen-5-yl)-2-(N-methylaminoethoxy)ethanol hydrochloride]
response vs control in vivo at 100 mg/kg ([2]; 0.5 h): 162%

OC(COCCNC1CC1)c1ccc2sccc2c1 (centres unmarked) [compound 348]
response vs control in vivo at 100 mg/kg [2, 3]: 251%

CN1CCN(CCOCC(O)c2ccc3sccc3c2)CC1 (centres unmarked) [compound 349]
response vs control in vivo at 100 mg/kg [2, 3]: 209%

OC(COCCNC12CC3CC(CC(C3)C1)C2)c1ccc2sccc2c1 (centres unmarked) [compound 353]
response vs control in vivo at 100 mg/kg [2, 3]: 132%

NCCOCC(O)c1ccc2sccc2c1 (centres unmarked) [compound 357, 1-(benzo[b]thiophen-5-yl)-2-(2-aminoethoxy)ethanol 1/2 fumarate]
response vs control in vivo at 100 mg/kg [2, 3]: 189%

OC(COCc1c[nH]cn1)c1ccc2sccc2c1 (centres unmarked) [compound 358, 1-(benzo[b]thiophen-5-yl)-2-[(imidazolyl)methoxy]ethanol]
response vs control in vivo at 100 mg/kg [2, 3]: 211%

CN(C)CCOCC(O)c1ccc2[nH]ccc2c1 (centres unmarked) [compound 365]
response vs control in vivo at 100 mg/kg [2, 3]: 155%

OC(COCCCNC1CC1)c1ccc2sccc2c1 (centres unmarked) [compound 383]
response vs control in vivo at 100 mg/kg [2, 3]: 293%

OC(COCCCN1CCCCC1)c1ccc2sccc2c1 (centres unmarked) [compound 387]
response vs control in vivo at 100 mg/kg [2, 3]: 228%

CCN(CC)CCOCC(O)c1ccc2sccc2c1 (centres unmarked) [compound 388, 2-[2-(N,N-diethylamino)ethoxy]-1-(benzo[b]thiophen-5-yl)ethanol hydrochloride]
response vs control in vivo at 100 mg/kg ([2]; 0.5 h): 213%

OC(COCCN1CCN(Cc2ccccc2)CC1)c1ccc2occc2c1 (centres unmarked) [compound 394, dihydrochloride]
response vs control in vivo at 100 mg/kg [2, 3]: 241%
